In patent US8044069B2, “Compounds as calcium channel blockers” (Abbott Laboratories, priority 2008, dated 2011) one finds IC50 data, which are given here for 34 compounds.

Sequence of human Cav2.2 (Q00975 whole entry): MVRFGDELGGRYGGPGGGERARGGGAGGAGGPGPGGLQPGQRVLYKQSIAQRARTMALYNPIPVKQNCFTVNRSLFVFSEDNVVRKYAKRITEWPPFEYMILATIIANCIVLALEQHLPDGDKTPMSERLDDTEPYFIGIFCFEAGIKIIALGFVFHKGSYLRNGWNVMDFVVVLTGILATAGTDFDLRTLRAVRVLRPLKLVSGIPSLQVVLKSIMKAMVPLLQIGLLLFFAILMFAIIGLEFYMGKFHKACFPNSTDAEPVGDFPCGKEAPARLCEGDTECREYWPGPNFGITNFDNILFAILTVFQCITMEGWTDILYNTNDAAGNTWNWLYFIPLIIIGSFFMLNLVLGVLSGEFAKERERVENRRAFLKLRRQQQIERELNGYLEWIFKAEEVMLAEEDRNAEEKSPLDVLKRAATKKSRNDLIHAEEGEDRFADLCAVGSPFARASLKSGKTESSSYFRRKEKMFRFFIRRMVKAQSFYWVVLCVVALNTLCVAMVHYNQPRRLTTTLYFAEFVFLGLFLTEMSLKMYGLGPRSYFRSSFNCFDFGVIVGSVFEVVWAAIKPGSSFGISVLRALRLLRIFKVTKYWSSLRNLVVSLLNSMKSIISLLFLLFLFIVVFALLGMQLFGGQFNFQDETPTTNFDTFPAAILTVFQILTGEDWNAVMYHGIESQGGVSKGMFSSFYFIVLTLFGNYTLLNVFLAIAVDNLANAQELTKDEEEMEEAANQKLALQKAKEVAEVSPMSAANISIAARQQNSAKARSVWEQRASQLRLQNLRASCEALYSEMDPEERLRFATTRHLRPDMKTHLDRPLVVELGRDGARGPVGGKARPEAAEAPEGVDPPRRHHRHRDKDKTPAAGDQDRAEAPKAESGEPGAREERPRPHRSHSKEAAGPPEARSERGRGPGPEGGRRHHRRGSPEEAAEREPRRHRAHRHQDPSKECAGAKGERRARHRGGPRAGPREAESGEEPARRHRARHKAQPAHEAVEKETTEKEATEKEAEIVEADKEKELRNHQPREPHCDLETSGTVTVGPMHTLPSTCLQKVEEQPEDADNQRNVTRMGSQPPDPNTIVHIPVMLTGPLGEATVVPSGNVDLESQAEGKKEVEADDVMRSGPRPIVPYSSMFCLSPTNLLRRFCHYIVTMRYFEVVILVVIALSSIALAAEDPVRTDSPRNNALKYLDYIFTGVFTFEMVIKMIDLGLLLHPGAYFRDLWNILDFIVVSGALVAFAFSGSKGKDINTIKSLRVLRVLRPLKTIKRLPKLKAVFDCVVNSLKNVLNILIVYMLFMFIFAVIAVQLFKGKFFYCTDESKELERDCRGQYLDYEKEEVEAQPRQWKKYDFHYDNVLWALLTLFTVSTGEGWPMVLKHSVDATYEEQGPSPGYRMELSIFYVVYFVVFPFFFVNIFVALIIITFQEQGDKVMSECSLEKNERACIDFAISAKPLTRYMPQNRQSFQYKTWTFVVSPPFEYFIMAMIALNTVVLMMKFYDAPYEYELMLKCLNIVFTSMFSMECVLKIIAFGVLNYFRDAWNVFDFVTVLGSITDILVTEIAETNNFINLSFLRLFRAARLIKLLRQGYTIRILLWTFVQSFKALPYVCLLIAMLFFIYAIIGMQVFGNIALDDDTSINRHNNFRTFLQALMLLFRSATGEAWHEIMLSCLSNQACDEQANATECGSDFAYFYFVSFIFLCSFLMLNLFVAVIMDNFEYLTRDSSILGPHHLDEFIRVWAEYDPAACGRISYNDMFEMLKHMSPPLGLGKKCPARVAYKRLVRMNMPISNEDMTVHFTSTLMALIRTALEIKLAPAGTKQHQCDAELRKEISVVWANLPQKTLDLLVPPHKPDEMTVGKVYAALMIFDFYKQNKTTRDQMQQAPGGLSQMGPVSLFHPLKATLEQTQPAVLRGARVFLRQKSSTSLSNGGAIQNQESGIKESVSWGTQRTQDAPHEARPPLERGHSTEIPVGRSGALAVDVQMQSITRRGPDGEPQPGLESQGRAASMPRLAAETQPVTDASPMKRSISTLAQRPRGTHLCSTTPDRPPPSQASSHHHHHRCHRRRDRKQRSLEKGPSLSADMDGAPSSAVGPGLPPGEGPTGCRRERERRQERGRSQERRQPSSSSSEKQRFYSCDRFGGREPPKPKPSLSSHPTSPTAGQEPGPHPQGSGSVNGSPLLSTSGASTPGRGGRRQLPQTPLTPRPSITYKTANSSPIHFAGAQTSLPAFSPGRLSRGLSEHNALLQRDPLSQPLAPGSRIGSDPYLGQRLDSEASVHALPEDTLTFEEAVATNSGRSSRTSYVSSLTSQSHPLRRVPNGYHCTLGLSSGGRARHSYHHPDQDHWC
Sequence of human Cav2.2 (P54289 25-951 partner limits assumed): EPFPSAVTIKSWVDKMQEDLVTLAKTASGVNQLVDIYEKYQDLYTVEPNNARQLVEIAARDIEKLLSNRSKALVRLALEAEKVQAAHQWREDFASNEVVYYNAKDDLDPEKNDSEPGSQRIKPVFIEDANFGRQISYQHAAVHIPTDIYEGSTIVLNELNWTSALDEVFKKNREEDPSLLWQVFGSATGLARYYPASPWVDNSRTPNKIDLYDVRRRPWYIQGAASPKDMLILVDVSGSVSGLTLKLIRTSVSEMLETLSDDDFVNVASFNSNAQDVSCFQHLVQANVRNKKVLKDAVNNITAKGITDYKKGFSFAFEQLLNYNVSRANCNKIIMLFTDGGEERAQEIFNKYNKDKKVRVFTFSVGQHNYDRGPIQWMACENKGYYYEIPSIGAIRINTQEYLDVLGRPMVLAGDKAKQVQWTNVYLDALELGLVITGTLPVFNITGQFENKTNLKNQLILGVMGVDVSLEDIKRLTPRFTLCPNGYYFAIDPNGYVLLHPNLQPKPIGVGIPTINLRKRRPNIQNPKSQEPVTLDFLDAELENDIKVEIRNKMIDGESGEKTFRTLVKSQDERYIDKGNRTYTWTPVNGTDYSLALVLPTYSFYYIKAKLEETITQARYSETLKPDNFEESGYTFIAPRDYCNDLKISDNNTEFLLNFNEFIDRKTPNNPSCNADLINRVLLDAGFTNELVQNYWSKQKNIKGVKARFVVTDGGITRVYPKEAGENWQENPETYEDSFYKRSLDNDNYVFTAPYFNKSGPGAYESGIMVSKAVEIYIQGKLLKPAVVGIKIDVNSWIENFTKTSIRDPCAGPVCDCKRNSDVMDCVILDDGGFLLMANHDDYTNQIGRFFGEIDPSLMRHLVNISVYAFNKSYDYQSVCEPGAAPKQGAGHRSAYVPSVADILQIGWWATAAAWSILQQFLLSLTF
Sequence of human Cav2.2 (P54289 952-1103 partner limits assumed): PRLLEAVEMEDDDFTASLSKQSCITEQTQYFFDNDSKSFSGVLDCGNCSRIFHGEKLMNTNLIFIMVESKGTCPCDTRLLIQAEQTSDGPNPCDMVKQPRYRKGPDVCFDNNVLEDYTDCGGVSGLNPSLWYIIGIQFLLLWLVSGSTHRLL
Sequence of human Cav2.2 (P54284 whole entry partner): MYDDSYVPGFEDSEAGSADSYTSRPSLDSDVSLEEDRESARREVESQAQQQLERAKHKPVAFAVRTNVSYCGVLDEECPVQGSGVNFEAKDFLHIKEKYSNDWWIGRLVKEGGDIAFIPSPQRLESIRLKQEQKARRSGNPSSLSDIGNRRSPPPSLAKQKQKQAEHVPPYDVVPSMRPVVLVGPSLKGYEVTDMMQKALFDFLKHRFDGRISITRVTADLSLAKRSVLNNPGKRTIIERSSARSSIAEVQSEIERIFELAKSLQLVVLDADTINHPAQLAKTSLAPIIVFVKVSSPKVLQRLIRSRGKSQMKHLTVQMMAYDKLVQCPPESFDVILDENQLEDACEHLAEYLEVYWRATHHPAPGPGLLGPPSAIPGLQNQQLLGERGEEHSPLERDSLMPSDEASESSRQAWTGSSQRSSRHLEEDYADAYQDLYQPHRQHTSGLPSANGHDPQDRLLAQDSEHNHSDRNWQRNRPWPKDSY

This assay deals with human Cav2.2 (Homo sapiens, UniProt Q00975). The assay can be described thus: Assessment of calcium channel activity using FLIPR (Ca2+ influx in IMR32 cells). In kind it is cell-based. The settings on record: IMR32 cells endogenously expressing human Cav2.2; 60 minute pre-incubation; 2 μM nifedipine; depolarized with 80 mM KCl, 5 mM CaCl2. Here is the method: (i) In Vitro Methods—Assessment of Calcium Channel Activity Using FLIPR:
The IMR32 cells were maintained in MEM media containing 10% (v/v) FBS, 1% (v/v) antibiotic/antimitotic, 1% (v/v) sodium pyruvate and 1% (v/v) MEM NEAA. Following dissociation in 0.05% (v/v) trypsin/EDTA, cells were seeded into black 1×96-well plates (Corning Cellbind) at a density of 1-1.2×10^5 cells/well and incubated in the maintenance media above for 48 hours at 37° C. […] After dye loading and a subsequent 60 minute pre-incubation with compounds (full log dilutions from 10 μM to 0.1 nM) in the presence of 1.3 mM CaCl2 and 2 μM nifedipine to block endogenous L-type channels, the external Ca^2+ concentration was increased to 5 mM CaCl2 and the cells concomitantly depolarized with 80 mM KCl to assay channel activity. To determine the IC50 values, the percent inhibition of the compound at each concentration was determined relative to the activity in the absence of inhibitor, and data was fitted using non-linear regression sigmoidal dose response curve analysis with GraphPad Prism®.
The term IC50 denotes the midpoint of a concentration-inhibition curve. For the compound `CC1(NC(=O)CN2CCCC(c3ccccc3)(c3ccccc3)C2=O)CCN(Cc2ccccc2)C1` (stereo not shown) [Example 89, N-(1-benzyl-3-methylpyrrolidin-3-yl)-2-(2-oxo-3,3-diphenylpiperidin-1-yl)acetamide], the IC50 amounted to 3 µM.

On to `O=C(CN1CCCC(c2ccccc2)C1=O)NC1(c2ccc(F)cc2)CCC1` (stereo not shown) [Example 97, N-[1-(4-fluorophenyl)cyclobutyl]-2-(2-oxo-3-phenylpiperidin-1-yl)acetamide], for which the IC50 was found to be 10 µM.

`O=C(CN1CCC(c2ccccc2)(c2ccccc2)C1=O)NC1Cc2ccccc2C1` [Example 22, N-2,3-dihydro-1H-inden-2-yl-2-(2-oxo-3,3-diphenylpyrrolidin-1-yl)acetamide]: the IC50 was 3.96 µM.

With `O=C1N(S(=O)(=O)c2ccccc2C(F)(F)F)CCC1(c1ccccc1)c1ccccc1` [Example 148, 3,3-diphenyl-1-{[2-(trifluoromethyl)phenyl]sulfonyl}pyrrolidin-2-one], the IC50 is 6.88 µM.

Consider `O=C(CN1CCC[C@@H](c2ccccc2)C1=O)N1Cc2ccc(F)cc2C1` (single isomer, unassigned) [Example 187], for which the IC50 was over 30 µM.

As to `O=C(CN1CCC(c2ccc(F)cc2Cl)C1=O)N1Cc2ccc(C(F)(F)F)cc2C1` (stereo not shown) [Example 269, 3-(2-chloro-4-fluorophenyl)-1-{2-oxo-2-[5-(trifluoromethyl)-1,3-dihydro-2H-isoindol-2-yl]ethyl}pyrrolidin-2-one], the half-inhibitory concentration (IC50) stood at 3.21 µM.

For the compound `COc1ccc(CCN(C)C(=O)CN2CCCC(c3ccccc3)(c3ccccc3)C2=O)cc1OC` [Example 143, N-[2-(3,4-dimethoxyphenyl)ethyl]-N-methyl-2-(2-oxo-3,3-diphenylpiperidin-1-yl)acetamide], the IC50 is 11.6 µM.

In the case of `COc1cccc(CCN(C)CCCN2CCCC(c3cccc(OC)c3)(C(C)C)C2=O)c1` (stereo not shown) [Example 128, 3-isopropyl-3-(3-methoxyphenyl)-1-{3-[[2-(3-methoxyphenyl)ethyl](methyl)amino]propyl}piperidin-2-one], the IC50 was determined as 1.12 µM.

Take `N#Cc1ccc(C2CN(C(=O)CN3CCCC(c4ccccc4)(c4ccccc4)C3=O)C2)cc1` [Example 241, 4-{1-[(2-oxo-3,3-diphenylpiperidin-1-yl)acetyl]azetidin-3-yl}benzonitrile]: the IC50 was 8.96 µM.

As to `COc1cccc(CCN(C)CCCN2CCCC(c3ccc(F)cc3)(c3ccc(F)cc3)C2=O)c1` [Example 121, 3,3-bis(4-fluorophenyl)-1-{3-[[2-(3-methoxyphenyl)ethyl](methyl)amino]propyl}piperidin-2-one], the IC50 stood at 1.63 µM.

Take `O=C(CN1CCC(c2ccccc2)(c2ccccc2)C1=O)N1CCC[C@@H]2CN(C(c3ccccc3)c3ccccc3)C[C@@H]21` [Example 51, 1-{2-[(4aR,7aR)-6-benzhydryloctahydro-1H-pyrrolo[3,4-b]pyridin-1-yl]-2-oxoethyl}-3,3-diphenylpyrrolidin-2-one]: the IC50 turned out to be 2.29 µM.

Consider `O=C(CN1CCCC(c2ccccc2)(c2ccccc2)C1=O)NC1CCOc2ccc(F)cc21` (stereo not shown) [Example 75, N-(6-fluoro-3,4-dihydro-2H-chromen-4-yl)-2-(2-oxo-3,3-diphenylpiperidin-1-yl)acetamide], for which the IC50 is 4.61 µM.

On to `COc1ccc(C2(c3ccc(OC)cc3)CCCN(CCCN(C)CCc3cc(OC)cc(OC)c3)C2=O)cc1` [Example 119, 1-{3-[[2-(3,5-dimethoxyphenyl)ethyl](methyl)amino]propyl}-3,3-bis(4-methoxyphenyl)piperidin-2-one], for which the half-maximal inhibitory concentration (IC50) was 2.68 µM.

As for `Cn1ccc(CNC(=O)CN2CCC(c3ccccc3)(c3ccccc3)C2=O)n1` [Example 4, N-[(1-methyl-1H-pyrazol-3-yl)methyl]-2-(2-oxo-3,3-diphenylpyrrolidin-1-yl)acetamide], the half-maximal inhibitory concentration (IC50) turned out to be 29.8 µM.

Take `O=C(CN1CCCC(c2ccccc2)(c2ccccc2)C1=O)NC1CCN(Cc2ccc(F)c(C(F)(F)F)c2)CC1` [Example 183, N-{1-[4-fluoro-3-(trifluoromethyl)benzyl]piperidin-4-yl}-2-(2-oxo-3,3-diphenylpiperidin-1-yl)acetamide]: the IC50 was 0.96 µM.

As for `O=C(CN1CCCC(c2ccccc2)(c2ccccc2)C1=O)NC1CN(Cc2cccc(C(F)(F)F)c2)C1` [Example 180, 2-(2-oxo-3,3-diphenylpiperidin-1-yl)-N-{1-[3-(trifluoromethyl)benzyl]azetidin-3-yl}acetamide], the IC50 is 0.94 µM.

For `O=C(CN1CCC(c2ccc(F)cc2)(c2ccc(F)cc2)C1=O)Nc1ccc(Cl)cn1` [Example 225, 2-[3,3-bis(4-fluorophenyl)-2-oxopyrrolidin-1-yl]-N-(5-chloropyridin-2-yl)acetamide], the IC50 worked out at 2.48 µM.

Turning to `O=C(CN1CCCC(c2ccc(F)cc2)(c2ccc(F)cc2)C1=O)N1CCN(C(c2ccccc2)c2ccccc2)CC1` [Example 90, 1-[2-(4-benzhydrylpiperazin-1-yl)-2-oxoethyl]-3,3-bis(4-fluorophenyl)piperidin-2-one], the IC50 amounted to 4.61 µM.

As to `O=C(CN1CCC(c2ccccc2)(c2ccccc2)C1=O)NCCc1cccc(C(F)(F)F)c1` [Example 10, 2-(2-oxo-3,3-diphenylpyrrolidin-1-yl)-N-{2-[3-(trifluoromethyl)phenyl]ethyl}acetamide], the IC50 was 3.87 µM.

On to `O=C(CN1CCC(c2ccccc2)(c2ccccc2)C1=O)N1CCN(c2ccc(Cl)cn2)CC1` [Example 53, 1-{2-[4-(5-chloropyridin-2-yl)piperazin-1-yl]-2-oxoethyl}-3,3-diphenylpyrrolidin-2-one], for which the IC50 was 4.02 µM.

`O=C(CN1CCC(c2ccc(F)cc2)(c2ccc(F)cc2)C1=O)N1CCc2ccccc2C1` [Example 258, 1-[2-(3,4-dihydroisoquinolin-2(1H)-yl)-2-oxoethyl]-3,3-bis(4-fluorophenyl)pyrrolidin-2-one]: the IC50 turned out to be 4.45 µM.

With `O=C1N(Cc2nc(COc3ccc(Cl)cc3)no2)CCCC1(c1ccccc1)c1ccccc1` [Example 263, 1-({3-[(4-chlorophenoxy)methyl]-1,2,4-oxadiazol-5-yl}methyl)-3,3-diphenylpiperidin-2-one], the IC50 stood at 3.49 µM.

For `Cc1ccc(-c2noc(CN3CCC(c4ccccc4)(c4ccccc4)C3=O)n2)cc1` [Example 195, 1-{[3-(4-methylphenyl)-1,2,4-oxadiazol-5-yl]methyl}-3,3-diphenylpyrrolidin-2-one], the IC50 turned out to be 3.57 µM.

Turning to `O=C(CN1CCC(c2ccc(Cl)c(Cl)c2)C1=O)N1Cc2ccc(F)cc2C1` (stereo not shown) [Example 270, 3-(3,4-dichlorophenyl)-1-[2-(5-fluoro-1,3-dihydro-2H-isoindol-2-yl)-2-oxoethyl]pyrrolidin-2-one], the IC50 was found to be 5.25 µM.

Regarding `O=C(CN1CCCC(c2ccccc2)(c2ccccc2)C1=O)N1CCC(O)(c2ccc(Cl)c(C(F)(F)F)c2)CC1` [Example 250, 1-(2-{4-[4-chloro-3-(trifluoromethyl)phenyl]-4-hydroxypiperidin-1-yl}-2-oxoethyl)-3,3-diphenylpiperidin-2-one], the IC50 was 4.13 µM.

As for `O=C(CN1CCC(c2ccccc2)(c2ccccc2)C1=O)Nc1ncc(C(F)(F)F)cc1Cl` [Example 249, N-[3-chloro-5-(trifluoromethyl)pyridin-2-yl]-2-(2-oxo-3,3-diphenylpyrrolidin-1-yl)acetamide], the IC50 stood at 6.48 µM.

On to `O=C(CN1CCC(c2ccccc2)(c2ccccc2)C1=O)NC1CCCc2ccccc21` (stereo not shown) [Example 27, 2-(2-oxo-3,3-diphenylpyrrolidin-1-yl)-N-1,2,3,4-tetrahydronaphthalen-1-ylacetamide], for which the IC50 was 3.03 µM.

For the compound `O=C(CN1CCC(c2ccccc2)(c2ccccc2)C1=O)N1CCOC(c2ccccc2)(c2ccccc2)C1` [Example 23, 1-[2-(2,2-diphenylmorpholin-4-yl)-2-oxoethyl]-3,3-diphenylpyrrolidin-2-one], the IC50 was 0.69 µM.

Take `O=C(CN1CCCC(c2ccccc2)(c2ccccc2)C1=O)N[C@H]1CCN(Cc2cccc(C(F)(F)F)c2)C1` [Example 185, 2-(2-oxo-3,3-diphenylpiperidin-1-yl)-N-{(3S)-1-[3-(trifluoromethyl)benzyl]pyrrolidin-3-yl}acetamide]: the IC50 turned out to be 1.15 µM.

`O=C1N(Cc2nc(-c3cnccn3)no2)CCC1(c1ccccc1)c1ccccc1` [Example 230, 3,3-diphenyl-1-[(3-pyrazin-2-yl-1,2,4-oxadiazol-5-yl)methyl]pyrrolidin-2-one]: the IC50 was 8.99 µM.

For the compound `COc1ccc(C2(c3ccc(OC)cc3)CCCN(CCCN(C)CCCOc3cc(OC)cc(OC)c3)C2=O)cc1` [Example 116, 1-{3-[[3-(3,5-dimethoxyphenoxy)propyl](methyl)amino]propyl}-3,3-bis(4-methoxyphenyl)piperidin-2-one], the half-maximal inhibitory concentration (IC50) is 2.01 µM.

As for `O=C(CN1CCCC(c2ccccc2)C1=O)N1CCN(Cc2ccc(Cl)cc2Cl)CC1` (stereo not shown) [Example 94, 1-{2-[4-(2,4-dichlorobenzyl)piperazin-1-yl]-2-oxoethyl}-3-phenylpiperidin-2-one], the IC50 was determined as 2.2 µM.

Take `O=C1N(Cc2nc(-c3ccncc3)no2)CCC1(c1ccccc1)c1ccccc1` [Example 222, 3,3-diphenyl-1-[(3-pyridin-4-yl-1,2,4-oxadiazol-5-yl)methyl]pyrrolidin-2-one]: the IC50 turned out to be 5.43 µM.

For `O=C(CN1CCCC(c2ccccc2)(c2ccccc2)C1=O)N1CCN(S(=O)(=O)c2cccc(C(F)(F)F)c2)CC1` [Example 84, 1-[2-oxo-2-(4-{[3-(trifluoromethyl)phenyl]sulfonyl}piperazin-1-yl)ethyl]-3,3-diphenylpiperidin-2-one], the IC50 was 0.41 µM.
